Reference: US20130065818A1, “Arylamide Compounds And Compositions And Uses Thereof” (POLYMEDIX, priority 2006, published 2013)
Values after ≈ are worked out from the molar mass of the structure shown. Where two headings read alike, the source gives them in different places.

Assays:
Pseudomonas aeruginosa = test: MIC, 25 ocular isolates, broth microdilution (Example 8); assay type: cell-based
Summary of the method: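 Broth microdilution in Mueller-Hinton broth, polypropylene plates, inoculum from 0.5 McFarland suspension diluted 0.05 ml into 5 ml; final test agent 64–0.0625 μg/ml (128–0.125 μg/ml for P. aeruginosa) in 0.01% acetic acid, 0.2% BSA diluent. Incubated 37° C overnight; MIC read visually as lowest concentration inhibiting visible growth.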

Serratia marcescens = test: as above; assay type: cell-based
[1] = 25 isolates, Summary of Results, >128 was Replaced with 256

## N=C(N)NCCCCC(=O)Nc1cc(C(F)(F)F)cc(NC(=O)c2cc(C(=O)Nc3cc(C(F)(F)F)cc(NC(=O)CCCCNC(=N)N)c3O[C@@H]3CCNC3)ncn2)c1O[C@@H]1CCNC1 [Oligomer 4]
Pseudomonas aeruginosa; 25 isolates, Row 13
  MIC50: 4 µg/mL (≈ 4.27 µM)
Pseudomonas aeruginosa; [1]
  Range of MICs: 0.5 to 8 µg/mL
Pseudomonas aeruginosa; Pseudomonas aeruginosa, 25 ocular isolates, read-out: Median MIC
  MIC: 4 µg/mL (≈ 4.27 µM)
Pseudomonas aeruginosa; Pseudomonas aeruginosa, isolate 1—K1673, read-out: MIC
  MIC: 2 µg/mL (≈ 2.13 µM)
Pseudomonas aeruginosa; Pseudomonas aeruginosa, isolate 2—K1668, read-out: MIC
  MIC: 2 µg/mL (≈ 2.13 µM)
Pseudomonas aeruginosa; Pseudomonas aeruginosa, isolate 3—K1662, read-out: MIC
  MIC: 2 µg/mL (≈ 2.13 µM)
Pseudomonas aeruginosa; Pseudomonas aeruginosa, isolate 4—K1657, read-out: MIC
  MIC: 2 µg/mL (≈ 2.13 µM)
Pseudomonas aeruginosa; Pseudomonas aeruginosa, isolate 5—K1651, read-out: MIC
  MIC: 4 µg/mL (≈ 4.27 µM)
Pseudomonas aeruginosa; Pseudomonas aeruginosa, isolate 6—K1649, read-out: MIC
  MIC: 4 µg/mL (≈ 4.27 µM)
Pseudomonas aeruginosa; Pseudomonas aeruginosa, isolate 7—K1564, read-out: MIC
  MIC: 8 µg/mL (≈ 8.54 µM)
Pseudomonas aeruginosa; Pseudomonas aeruginosa, isolate 8—K1636, read-out: MIC
  MIC: 0.5 µg/mL (≈ 0.534 µM)
Pseudomonas aeruginosa; Pseudomonas aeruginosa, isolate 9—K1634, read-out: MIC
  MIC: 2 µg/mL (≈ 2.13 µM)
Pseudomonas aeruginosa; Pseudomonas aeruginosa, isolate 10—K1633, read-out: MIC
  MIC: 4 µg/mL (≈ 4.27 µM)
Pseudomonas aeruginosa; Pseudomonas aeruginosa, isolate 11—K1632, read-out: MIC
  MIC: 4 µg/mL (≈ 4.27 µM)
Pseudomonas aeruginosa; Pseudomonas aeruginosa, isolate 12—K1631, read-out: MIC
  MIC: 8 µg/mL (≈ 8.54 µM)
Pseudomonas aeruginosa; Pseudomonas aeruginosa, isolate 13—K1629, read-out: MIC
  MIC: 4 µg/mL (≈ 4.27 µM)
Pseudomonas aeruginosa; Pseudomonas aeruginosa, isolate 14—K1627, read-out: MIC
  MIC: 2 µg/mL (≈ 2.13 µM)
Pseudomonas aeruginosa; Pseudomonas aeruginosa, isolate 15—K1626, read-out: MIC
  MIC: 8 µg/mL (≈ 8.54 µM)
Pseudomonas aeruginosa; Pseudomonas aeruginosa, isolate 16—K1625, read-out: MIC
  MIC: 4 µg/mL (≈ 4.27 µM)
Pseudomonas aeruginosa; Pseudomonas aeruginosa, isolate 17—K1562, read-out: MIC
  MIC: 4 µg/mL (≈ 4.27 µM)
Pseudomonas aeruginosa; Pseudomonas aeruginosa, isolate 18—K1613, read-out: MIC
  MIC: 4 µg/mL (≈ 4.27 µM)
Pseudomonas aeruginosa; Pseudomonas aeruginosa, isolate 19—K1553, read-out: MIC
  MIC: 2 µg/mL (≈ 2.13 µM)
Pseudomonas aeruginosa; Pseudomonas aeruginosa, isolate 20—K1594, read-out: MIC
  MIC: 2 µg/mL (≈ 2.13 µM)
Pseudomonas aeruginosa; Pseudomonas aeruginosa, isolate 21—K1588, read-out: MIC
  MIC: 4 µg/mL (≈ 4.27 µM)
Pseudomonas aeruginosa; Pseudomonas aeruginosa, isolate 22—K1554, read-out: MIC
  MIC: 4 µg/mL (≈ 4.27 µM)
Pseudomonas aeruginosa; Pseudomonas aeruginosa, isolate 23—K1580, read-out: MIC
  MIC: 2 µg/mL (≈ 2.13 µM)
Pseudomonas aeruginosa; Pseudomonas aeruginosa, isolate 24—K1577, read-out: MIC
  MIC: 2 µg/mL (≈ 2.13 µM)
Pseudomonas aeruginosa; Pseudomonas aeruginosa, isolate 25—K1576, read-out: MIC
  MIC: 4 µg/mL (≈ 4.27 µM)
Pseudomonas aeruginosa; Pseudomonas aeruginosa, n=25 per group, read-out: Median MIC
  MIC: 4 µg/mL (≈ 4.27 µM)
Pseudomonas aeruginosa; Pseudomonas aeruginosa, 25 isolates, Summary of Results, read-out: MIC50
  MIC50: 4 µg/mL (≈ 4.27 µM)
Pseudomonas aeruginosa; Pseudomonas aeruginosa, 25 isolates, Summary of Results, read-out: MIC90
  MIC90: 4 µg/mL (≈ 4.27 µM)
Pseudomonas aeruginosa; Pseudomonas aeruginosa, 25 isolates, Summary of Results, read-out: Median MIC
  MIC: 4 µg/mL (≈ 4.27 µM)
Pseudomonas aeruginosa; n=25 per group
  MIC50: 4 µg/mL (≈ 4.27 µM)
  MIC90: 4 µg/mL (≈ 4.27 µM)
  Range of MICs: 0.5 to 8 µg/mL
Serratia marcescens; 25 isolates, Row 13, >128 was Replaced with 256
  MIC50: 8 µg/mL (≈ 8.54 µM)
Serratia marcescens; 25 isolates, Row 22, >128 was Replaced with 256
  MIC90: 32 µg/mL (≈ 34.2 µM)
Serratia marcescens; [1]
  Range of MICs: 0.25 to 32 µg/mL
Serratia marcescens; Serratia marcescens, 25 ocular isolates, read-out: Median MIC
  MIC: 8 µg/mL (≈ 8.54 µM)
Serratia marcescens; Serratia marcescens, isolate 1—K1681, read-out: MIC
  MIC: 32 µg/mL (≈ 34.2 µM)
Serratia marcescens; Serratia marcescens, isolate 2—K1674, read-out: MIC
  MIC: 32 µg/mL (≈ 34.2 µM)
Serratia marcescens; Serratia marcescens, isolate 3—K1558, read-out: MIC
  MIC: 4 µg/mL (≈ 4.27 µM)
Serratia marcescens; Serratia marcescens, isolate 4—K1538, read-out: MIC
  MIC: 16 µg/mL (≈ 17.1 µM)
Serratia marcescens; Serratia marcescens, isolate 5—K1503, read-out: MIC
  MIC: 32 µg/mL (≈ 34.2 µM)
Serratia marcescens; Serratia marcescens, isolate 6—K1216, read-out: MIC
  MIC: 4 µg/mL (≈ 4.27 µM)
Serratia marcescens; Serratia marcescens, isolate 7—K1496, read-out: MIC
  MIC: 8 µg/mL (≈ 8.54 µM)
Serratia marcescens; Serratia marcescens, isolate 8—K1481, read-out: MIC
  MIC: 2 µg/mL (≈ 2.13 µM)
Serratia marcescens; Serratia marcescens, isolate 9—K1470, read-out: MIC
  MIC: 32 µg/mL (≈ 34.2 µM)
Serratia marcescens; Serratia marcescens, isolate 10—K1468, read-out: MIC
  MIC: 2 µg/mL (≈ 2.13 µM)
Serratia marcescens; Serratia marcescens, isolate 11—K1467, read-out: MIC
  MIC: 32 µg/mL (≈ 34.2 µM)
Serratia marcescens; Serratia marcescens, isolate 12—K1462, read-out: MIC
  MIC: 16 µg/mL (≈ 17.1 µM)
Serratia marcescens; Serratia marcescens, isolate 13—K1461, read-out: MIC
  MIC: 8 µg/mL (≈ 8.54 µM)
Serratia marcescens; Serratia marcescens, isolate 14—K1413, read-out: MIC
  MIC: 16 µg/mL (≈ 17.1 µM)
Serratia marcescens; Serratia marcescens, isolate 15—K1402, read-out: MIC
  MIC: 0.25 µg/mL (≈ 0.267 µM)
Serratia marcescens; Serratia marcescens, isolate 16—K1357, read-out: MIC
  MIC: 1 µg/mL (≈ 1.07 µM)
Serratia marcescens; Serratia marcescens, isolate 17—K1351, read-out: MIC
  MIC: 0.5 µg/mL (≈ 0.534 µM)
Serratia marcescens; Serratia marcescens, isolate 18—K1327, read-out: MIC
  MIC: 8 µg/mL (≈ 8.54 µM)
Serratia marcescens; Serratia marcescens, isolate 19—K1321, read-out: MIC
  MIC: 8 µg/mL (≈ 8.54 µM)
Serratia marcescens; Serratia marcescens, isolate 20—K1315, read-out: MIC
  MIC: 16 µg/mL (≈ 17.1 µM)
Serratia marcescens; Serratia marcescens, isolate 21—K1306, read-out: MIC
  MIC: 8 µg/mL (≈ 8.54 µM)
Serratia marcescens; Serratia marcescens, isolate 22—K1290, read-out: MIC
  MIC: 8 µg/mL (≈ 8.54 µM)
Serratia marcescens; Serratia marcescens, isolate 23—K1265, read-out: MIC
  MIC: 8 µg/mL (≈ 8.54 µM)
Serratia marcescens; Serratia marcescens, isolate 24—K1263, read-out: MIC
  MIC: 8 µg/mL (≈ 8.54 µM)
Serratia marcescens; Serratia marcescens, isolate 25—K1239, read-out: MIC
  MIC: 8 µg/mL (≈ 8.54 µM)
Serratia marcescens; Serratia marcescens, n=25 per group, read-out: Median MIC
  MIC: 8 µg/mL (≈ 8.54 µM)
Serratia marcescens; Serratia marcescens, 25 isolates, Summary of Results, >128 was Replaced with 256, read-out: MIC50
  MIC50: 8 µg/mL (≈ 8.54 µM)
Serratia marcescens; Serratia marcescens, 25 isolates, Summary of Results, >128 was Replaced with 256, read-out: MIC90
  MIC90: 32 µg/mL (≈ 34.2 µM)
Serratia marcescens; Serratia marcescens, 25 isolates, Summary of Results, >128 was Replaced with 256, read-out: Median MIC
  MIC: 8 µg/mL (≈ 8.54 µM)
Serratia marcescens; n=25 per group
  MIC50: 8 µg/mL (≈ 8.54 µM)
  MIC90: 32 µg/mL (≈ 34.2 µM)
  Range of MICs: 0.25 to 32 µg/mL
